Measurements: article PMC12420824, “Discovery of a selective alpha-kinase 1 inhibitor for the rare genetic disease ROSAH syndrome” (Nature Communications, 2025)
Where “and” joins values, the source holds several entries; their conditions need not be identical. Equal values may be shown once.

Assays:
ALPK1 [1] = target: T1, ALPK1 (Homo sapiens, UniProt Q96QP1); assay: Western blotting-based in vitro kinase assay; format: biochemical; conditions: 20 µM
Procedure: Compounds were tested at a single final concentration of 20 μM in an in vitro kinase assay including 30 nM recombinant ALPK1 (purified from 293-F cells stimulated with 4% s.t. lysate 4 h before cell lysis) and 1.6 μM His-tagged TIFA in a 20 µl volume. […] An in vitro kinase reaction was conducted at 27 °C for 40 min in the following buffer: 20 mM HEPES pH 7.0, 1 mM TCEP, 10 mM MgCl2, 0.1 mM Na3VO4, 0.6 μM BSA, 5% DMSO and 25 μM ATP. […] After these in vitro kinase reactions, the kinase-substrate mix was fractionated by electrophoresis on denaturing SDS-PAGE gels and transferred to Immobilon-P PVDF membranes (Millipore, MA, USA). Membranes were blocked with 5% milk in TBS with 0.1% Triton-X100. Phosphorylated TIFA were detected by incubating the membrane with an anti-phospho-threonine (#9386, Cell Signaling Technology, Danvers, MA, USA) antibody. […]
compounds used in the Western blotting to measure the ability of compounds to inhibit the ALPK1-mediated phosphorylation of TIFA. (b) Example of the biochemical approach to validate hits from the thermal shift assay screen. ALPK1 binding compounds were tested in triplicate in an in vitro kinase assay at a final concentration of 20 µM, and the inhibitory effect was evaluated by comparing the phosphorylated TIFA level to that for the no compound control after the kinase reaction by Western blotting.
Phosphorylated TIFA was detected using an anti-phospho-theronine antibody. ALPK1 binders fell into three categories: inhibitors (e.g. WXHTS0017849, WXHTS WXHTS0037341), activators (e.g.
WXHTS0086594), and those with no effect (e.g. WXHTS0035788). […]

full-length ALPK1 [2] = target: T2, full-length ALPK1 (Homo sapiens, UniProt Q96QP1); assay: Surface plasmon resonance (SPR); format: binding; conditions: with 500 nM ADP-L-heptose
T2 construct: recombinant full-length ALPK1 kinase purified from Sf9 cells; 3xFlag (C); made in house; host or cells: Sf9 insect cells (baculovirus, pFAST-BAC)
T2 sequence (Q96QP1 whole entry): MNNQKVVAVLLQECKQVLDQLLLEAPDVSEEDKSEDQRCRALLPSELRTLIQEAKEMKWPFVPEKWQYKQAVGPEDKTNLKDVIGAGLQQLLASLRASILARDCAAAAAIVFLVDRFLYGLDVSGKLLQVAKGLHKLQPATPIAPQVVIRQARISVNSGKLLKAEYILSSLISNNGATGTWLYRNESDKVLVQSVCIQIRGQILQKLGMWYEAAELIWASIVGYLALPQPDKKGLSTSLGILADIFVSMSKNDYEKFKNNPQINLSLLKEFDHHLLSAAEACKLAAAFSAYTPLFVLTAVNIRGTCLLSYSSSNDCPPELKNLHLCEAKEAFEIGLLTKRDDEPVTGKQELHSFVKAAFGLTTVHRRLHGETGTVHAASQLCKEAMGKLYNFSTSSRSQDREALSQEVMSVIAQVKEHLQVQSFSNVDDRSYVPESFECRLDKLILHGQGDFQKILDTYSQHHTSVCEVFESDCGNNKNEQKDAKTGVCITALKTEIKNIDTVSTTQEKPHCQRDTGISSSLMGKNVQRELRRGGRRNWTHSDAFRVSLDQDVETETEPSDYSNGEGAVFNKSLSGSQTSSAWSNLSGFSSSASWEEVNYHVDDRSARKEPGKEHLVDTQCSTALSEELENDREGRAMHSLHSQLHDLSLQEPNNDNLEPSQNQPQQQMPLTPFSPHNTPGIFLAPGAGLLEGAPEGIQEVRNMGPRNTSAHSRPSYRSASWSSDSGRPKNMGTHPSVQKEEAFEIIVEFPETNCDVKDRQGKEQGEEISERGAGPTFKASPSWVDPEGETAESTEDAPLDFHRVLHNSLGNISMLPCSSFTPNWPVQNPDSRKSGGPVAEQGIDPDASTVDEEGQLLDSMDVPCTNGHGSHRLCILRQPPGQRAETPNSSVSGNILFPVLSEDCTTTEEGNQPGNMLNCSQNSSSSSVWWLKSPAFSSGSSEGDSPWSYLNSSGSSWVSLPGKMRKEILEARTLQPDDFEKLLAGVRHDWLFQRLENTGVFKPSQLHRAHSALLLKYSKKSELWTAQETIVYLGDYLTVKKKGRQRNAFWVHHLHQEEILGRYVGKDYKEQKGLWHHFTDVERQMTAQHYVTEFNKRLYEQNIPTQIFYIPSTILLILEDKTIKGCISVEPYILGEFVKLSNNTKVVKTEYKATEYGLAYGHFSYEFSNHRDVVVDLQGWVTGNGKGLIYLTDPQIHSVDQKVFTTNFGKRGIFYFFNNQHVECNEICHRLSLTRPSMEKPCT
Procedure: SPR assays were conducted on a Biacore 8 K (Cytiva). […] For analyte testing, flow rates were maintained at 30 µL/min. […] The data collection rate was 10 Hz, and all data were double referenced and solvent corrected. Analysis was performed using Biacore Insight Evaluation software version 5. The 1:1 kinetic binding affinity models were used to fit the data, and all parameters were fitted globally.

full-length ALPK1 [3] = target: T2, full-length ALPK1; assay: Thermal shift assay (TSA); format: binding; conditions: for TSA Tm Increase: compound at 10 μM; for increase in melting temperature (Tm): pilot TSA screen / assay validation
Procedure: A small molecule library containing ~160,000 compounds (HTS Diversity V2) was prepared by WuXi AppTec (Shanghai, China) in 384 well thin-wall qPCR plates, with 20 nL of 10 mM compound preparations in each well. On each screening plate, 2 columns of wells were loaded with 20 nL of pure DMSO to leave spaces for negative controls (no compounds) and the positive control (AS-252424). […] The mixture was spun down at 1000 rpm for 1 min, then immediately applied to a protein melting reaction on a Roche LightCycler® 480 II Real-time PCR system, heating the mixture from 30 °C to 50 °C at the ramp rate of 0.02 °C/s while continuously acquiring the fluorescence signal. The melting temperature (Tm) of the ALPK1 protein with or without each compound was calculated using the Protein Thermal Shift™ Analysis Desktop Software v1.2 (Thermo Fisher Scientific). For positive control wells, 40 μM AS-252424 in 5 μl compound solvent was added manually and used as a positive control in the thermal shift screening.

ALPK1 [4] = target: T1, ALPK1; assay: biochemical
Procedure: The 10 µL kinase reactions were allowed to proceed for 1.5 h at 27 °C. Kinase reactions were terminated by adding 10 µL of the HTRF KinEASE detection kit buffer (Cisbio, Bedford, MA, USA; 62SDBRDF) containing monoclonal anti-HA-Eu cryptate (Cisbio; 610HAKLB) and monoclonal Anti HA-d2 to each well. TIFA phosphorylation levels were monitored through the detection of oligomerization signals generated upon TIFAsome assembly. Both donor and acceptor antibodies recognize TIFA and will generate a TR-FRET signal when bound to the same TIFA oligomer formed upon TIFA phosphorylation. […] The TR-FRET signals were calculated as the ratio of the acceptor and donor emission signals with the formula below:
ALPK1 kinase activity was calculated as follows: % Activity = 100% × (TR-FRET signal of test compound - mean TR-FRET signal of no ATP 1% DMSO control) / (mean TR-FRET signal of 1% DMSO control – mean TR-FRET signal of no ATP 1% DMSO control).
In multi-dose assays, compound activity was calculated via logarithmic interpolation. Concentration-response curves were fitted with a four-parameter logistic nonlinear regression model and the IC50 values for these compounds were calculated in GraphPad Prism 6.

[5] = system: HEK-293 cells transfected with GFP-TIFA; assay: DF-006-induced TIFAsome formation; conditions: 1 μM DF-006 alone
Procedure: Curve fitting and IC50 value calculations were performed with GraphPad Prism 6.
HEK-293 cells were purchased from the Cell Bank of The Chinese Academy of Sciences and routinely cultured in DMEM/High-Glucose (Hyclone). For TIFAsome analyses, the coding sequence for the GFP-TIFA fusion protein was cloned into the pcDNA3.1 plasmid. […] Each condition was conducted in sextuplicate. Cells were fixed with 4% paraformaldehyde and stained with DAPI (Shanghai Zhenghuang, Shanghai, China; C1005). Fluorescent images were acquired using a Motic upright fluorescent microscope (PA53 BIO FS6).

ROSAH patients = ROSAH patients ref 3; cited from earlier work

T1 sequence (Q96QP1 whole entry): as above

Row | Compound | effect on ALPK1-mediated TIFA phosphorylation (ALPK1 [1]) | Kd (full-length ALPK1 [2]) [µM] | TSA Tm Increase (full-length ALPK1 [3]) [°C] | further results
1 | Cc1ccc(NC(=O)NCC(O)c2ccc(F)cc2F)cc1Cl (stereo not drawn) [WXHTS0086594] | activators |  |  | 
2 | CC1=NN(c2ccc(C)c(C)c2)C(=O)/C1=N\Nc1cccc(-c2cccc(C(=O)O)c2)c1O [Eltrombopag] | inhibit ALPK1 activity | 10 | 3.6 | IC50 (ALPK1 [4]): 7.6 µM
3 | O=C(O)c1cc(/N=N/c2ccc(S(=O)(=O)Nc3ccccn3)cc2)ccc1O [Sulfasalazine] |  | 281 | 2.0 | 
4 | CC(=O)OCC(F)C1OC(OP(=O)(O)OP(O)(=S)OCC2OC(n3cnc4c(N)ncnc43)C(O)C2O)C(OC(C)=O)C(OC(C)=O)C1OC(C)=O [DF-006, D-glycero-D-manno-6-fluoro-2,3,4,7-Ac-heptose-1β-S-ADP, reference compound] |  |  |  | Cells with TIFAsomes /GFP positive cells (%) [5]: 50.51% and 61.9% and 51.29% and 50.95% and 60.98%
5 | CO[C@@H]1[C@@H](OC(N)=O)[C@@H](O)[C@H](Oc2ccc3c(O)c(NC(=O)c4ccc(O)c(CC=C(C)C)c4)c(=O)oc3c2C)OC1(C)C [Novobiocin] |  |  | 1.4 | 
6 | Nc1c(-c2ccncc2)sc2nc(-c3cccs3)ccc12 [WXHTS0017849] | inhibitors |  |  | 
7 | Nc1ncnc2c1ncn2[C@@H]1O[C@H](COP(=O)(O)OP(=O)(O)O)[C@@H](O)[C@H]1O [ADP] |  |  |  | increase in melting temperature (Tm) (full-length ALPK1 [3]): 1.4 °C
8 | O=C1NC(=O)/C(=C/c2ccc(-c3ccc(F)cc3O)o2)S1 [AS-252424] |  | 1 | 3.4 | increase in melting temperature (Tm) (full-length ALPK1 [3]): 3.4 °C
9 | Brc1c(Br)c(Br)c2n[nH]nc2c1Br [Tbb] |  | 265 | 3.4 | 
10 | Nc1nc(C2(c3ccccc3)CCCC2)cs1 [WXHTS0037341] | inhibitors |  |  | 
11 | tocilizumab: anti-IL-6 drug given off-label to ROSAH patients |  |  |  | intraocular inflammation (ROSAH patients): improved intraocular inflammation (two of two patients)
12 | Cc1ccc(C(=O)c2cc(O)c(O)c([N+](=O)[O-])c2)cc1 [Tolcapone] | inhibit ALPK1 activity | 97 | 2.2 | 
13 | O=C(O)c1cccnc1Nc1cccc(C(F)(F)F)c1 [Niflumic acid] |  | 7 | 1.8 | 
14 | CC(=O)Oc1ccccc1-c1cccc(Cn2cccc(C(=O)Nc3ccc(-c4ccccc4)cc3)c2=O)c1 [WXHTS0035788] | no effect |  |  | 
